In general, IC50 refers to the midpoint of a concentration-inhibition curve.

In assay [1] the test system is synthesis of LTB4 in human whole blood. Nature of the assay: Human whole blood LTB4 production inhibition assay. The assay is classed as cell-based. The settings on record: heparinized human whole blood, calcimycin 20 μM, plasma LTB4; read-out: HuWB IC50. Put shortly: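 Readout: plasma LTB4 by antibody-based HTRF. Compound added to heparinized human whole blood, 15 min 37° C; calcimycin 20 μM final (PBS pH 7.4), 30 min 37° C; spun 1500×g 5 min, plasma taken.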

For assay [2], the target named is T1, recombinant human FLAP protein (Homo sapiens, UniProt P20292).
T1 construct: made in house; host or cells: Sf9 insect cells (membrane fraction, 100,000 x g pellet)
T1 sequence (P20292 1-161): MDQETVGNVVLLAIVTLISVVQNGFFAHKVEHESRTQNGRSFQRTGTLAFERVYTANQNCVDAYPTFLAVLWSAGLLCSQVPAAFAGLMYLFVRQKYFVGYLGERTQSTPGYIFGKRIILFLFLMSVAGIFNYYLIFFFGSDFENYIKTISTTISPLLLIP
Description: FLAP binding assay (SPA, displacement of [125I]L-691,831). The settings on record: membranes of sf9 cells expressing human FLAP, [125I]L-691,831 probe; read-out: hFLAP binding IC50. Put shortly: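 Membranes from sf9 cells expressing human FLAP (5 μg/well) were bound to WGA SPA beads (200 μg/well). Nonspecific binding was defined with 10 μM unlabelled L-691,831.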
Background: Loss of bound radioactivity is the signal in a displacement assay; it reports binding, not function.

Regarding `Nc1ncc(-c2ccc(C3(C(=O)Nc4ccc(C(F)(F)F)c(F)c4)CCOCC3)cc2)cn1` [Example 83, 4-[4-(2-aminopyrimidin-5-yl)phenyl]-N-[3-fluoro-4-(trifluoromethyl)phenyl] tetrahydro-2H-pyran-4-carboxamide], the IC50 in assay [1] is 1060 nM; in assay [2], 14.5 nM.
On the same counts, the results for `Cn1nccc1-c1ccc(NC(=O)C2(c3ccc(-c4cnc(N)nc4)cc3)CCOCC2)nc1` [Example 218, 4-[4-(2-aminopyrimidin-5-yl)phenyl]-N-[5-(1-methyl-1H-pyrazol-5-yl)pyridin-2-yl]tetrahydro-2H-pyran-4-carboxamide] are 958 nM and 32.5 nM.
On the same counts, the results for `Nc1ncc(-c2ccc(C3(C(=O)Nc4ccncc4)CCC3)cc2)cn1` [Example 177, 1-[4-(2-aminopyrimidin-5-yl)phenyl]-N-(pyridin-4-yl)cyclobutanecarboxamide] are 217 nM and 5.1 nM.
On the same counts, the results for `COc1ccc(-c2ccc(NC(=O)C(C)(c3ccc(-c4cnc5[nH]ccc5c4)cc3)C(C)C)nc2)cn1` (centres unmarked) [Example 166, N-(6'-methoxy-3,3'-bipyridin-6-yl)-2,3-dimethyl-2-[4-(1H-pyrolo[2,3-b]pyridin-5-yl)phenyl]butanamide] are 332 nM and 3 nM.
Consider `Nc1ncc(-c2ccc(C3(C(=O)Nc4ccc(Oc5ccccc5)cc4)CCOCC3)cc2)cn1` [Example 1, 4-[4-(2-aminopyrimidin-5-yl)phenyl]-N-(4-phenoxyphenyl)tetrahydro-2H-pyran-4-carboxamide], for which the IC50 in assay [1] is 461 nM; in assay [2] it was 16 nM.
The like results for `Cc1nc(-c2ccc(NC(=O)C3(c4ccc(-c5cnc6[nH]ccc6c5)cc4)CCOCC3)nc2)cs1` [Example 151, N-[5-(2-methyl-1,3-thiazol-4-yl)pyridin-2-yl]-4-[4-(1H-pyrrolo[2,3-b]pyridin-5-yl)phenyl]tetrahydro-2H-pyran-4-carboxamide] were, in that order, 200 nM and 2.1 nM.
On the same counts, the results for `Cc1ccc(NC(=O)C2(c3ccc(-c4cnc(N)nc4)cc3)CCOCC2)cc1C#N` [Example 62, 4-[4-(2-aminopyrimidin-5-yl)phenyl]-N-(3-cyano-4-methylphenyl)tetrahydro-2H-pyran-4-carboxamide] are greater than 3000 nM and 33.5 nM.
The like results for `CC(C)C(C)(C(=O)Nc1ccncc1)c1ccc(-c2ccc(N(C)C)nc2)cc1` (centres unmarked) [Example 227, 2-{4-[6-(dimethylamino)pyridin-3-yl]phenyl}-2,3-dimethyl-N-(pyridin-4-yl)butanamide] were, in that order, greater than 3000 nM and 40.5 nM.
Consider `COC(=O)c1sc(-c2ccc(Cl)cc2)cc1NC(=O)C1(c2ccc(-c3cnc(N)nc3)cc2)CCOCC1` [Example 73, methyl 3-[({4-[4-(2-aminopyrimidin-5-yl)phenyl]tetrahydro-2H-pyran-4-yl}carbonyl)amino]-5-(4-chlorophenyl)thiophene-2-carboxylate], for which the IC50 in assay [1] is 1500 nM; in assay [2] it was 53.5 nM.
On the same counts, the results for `Cc1nc(-c2ccc(NC(=O)C(C)(c3ccc(-c4cnn(C)c4)cc3)C(C)C)cc2)cs1` (centres unmarked) [Example 118, 2,3-dimethyl-2-[4-(1-methyl-1H-pyrazol-4-yl)phenyl]-N-[4-(2-methyl-1,3-thiazol-4-yl)phenyl]butanamide] are 10700 nM and 260 nM.
On the same counts, the results for `Nc1ncc(-c2ccc(C3(C(=O)Nc4ccc(C5CCCCC5)cc4)CCOCC3)cc2)cn1` [Example 5, 4-[4-(2-aminopyrimidin-5-yl)phenyl]-N-(4-cyclohexylphenyl)tetrahydro-2H-pyran-4-carboxamide] are 2970 nM and 101 nM.
Turning to `Nc1ncc(-c2ccc(C3(C(=O)Nc4ccc(-c5ncn[nH]5)cn4)CCC3)cc2)cn1` [Example 102, 1-[4-(2-aminopyrimidin-5-yl)phenyl]-N-[5-(1H-1,2,4-triazol-5-yl)pyridin-2-yl]cyclobutanecarboxamide], the IC50 in assay [1] came to 330 nM; in assay [2], 2.05 nM.
On the same counts, the results for `CS(=O)(=O)c1ccc(NC(=O)C2(c3ccc(-c4cnc(N)nc4)cc3)CCC2)cn1` [Example 89, 1-[4-(2-aminopyrimidin-5-yl)phenyl]-N-[6-(methylsulfonyl)pyridin-3-yl]cyclobutanecarboxamide] are 202 nM and 8.13 nM.
The like results for `COC(=O)c1cccc(NC(=O)C2(c3ccc(-c4cnc(N)nc4)cc3)CCOCC2)c1` [Example 80, methyl 3-[({4-[4-(2-aminopyrimidin-5-yl)phenyl]tetrahydro-2H-pyran-4-yl}carbonyl)amino]benzoate] were, in that order, greater than 3000 nM and 60 nM.
Take `N#Cc1ccc(NC(=O)C2(c3ccc(-c4cnc(N)nc4)cc3)CCC2)nc1` [Example 232, 1-[4-(2-aminopyrimidin-5-yl)phenyl]-N-(5-cyanopyridin-2-yl)cyclobutanecarboxamide]: the IC50 in assay [1] is 152 nM; in assay [2] it was 7.45 nM.
On the same counts, the results for `COc1cncc(-c2ccc(NC(=O)C3(c4ccc(-c5cnc(N)nc5)nc4)CCOCC3)nc2)c1` [Example 132, 4-[6-(2-aminopyrimidin-5-yl)pyridin-3-yl]-N-(5′-methoxy-3,3′-bipyridin-6-yl)tetrahydro-2H-pyran-4-carboxamide] are 1510 nM and 220 nM.
For `Nc1ncc(-c2ccc(C3(C(=O)Nc4ccc(N5CCOCC5)c(Cl)c4)CCC3)cc2)cn1` [Example 245, 1-[4-(2-aminopyrimidin-5-yl)phenyl]-N-[3-chloro-4-(morpholin-4-yl)phenyl]cyclobutanecarboxamide], the IC50 came out at 46 nM in assay [1] and 3.3 nM in assay [2].
The like results for `Cc1nc(-c2ccc(NC(=O)C3(c4ccc(-c5cnc(N)nc5)cc4)CCCCC3)nc2)cs1` [Example 123, 1-[4-(2-aminopyrimidin-5-yl)phenyl]-N-[5-(2-methyl-1,3-thiazol-4-yl)pyridin-2-yl]cyclohexanecarboxamide] were, in that order, 919 nM and 4 nM.
On the same counts, the results for `Nc1ncc(-c2ccc(C3(C(=O)Nc4cc(C(F)(F)F)no4)CCOCC3)cc2)cn1` [Example 125, 4-[4-(2-aminopyrimidin-5-yl)phenyl]-N-[3-(trifluoromethyl)-1,2-oxazol-5-yl]tetrahydro-2H-pyran-4-carboxamide] are 5560 nM and 173 nM.
The like results for `Nc1ncc(-c2ccc(C3(C(=O)Nc4ccc(-c5csnn5)cc4)CCOCC3)cc2)cn1` [Example 25, 4-[4-(2-aminopyrimidin-5-yl)phenyl]-N-[4-(1,2,3-thiadiazol-4-yl)phenyl]tetrahydro-2H-pyran-4-carboxamide] were, in that order, 501 nM and 8.65 nM.
For the compound `Nc1ncc(-c2ccc(C3(C(=O)Nc4ccc5ccccc5n4)CCOCC3)cc2)cn1` [Example 142, 4-[4-(2-aminopyrimidin-5-yl)phenyl]-N-(quinolin-2-yl)tetrahydro-2H-pyran-4-carboxamide], the IC50 in assay [1] is 11300 nM; in assay [2], 39 nM.
The like results for `COc1cncc(-c2ccc(NC(=O)C3(c4ccc(-c5cnc(N)nc5)cc4)CCOCC3)nc2)c1` [Example 135, 4-[4-(2-aminopyrimidin-5-yl)phenyl]-N-(5'-methoxy-3,3'-bipyridin-6-yl)tetrahydro-2H-pyran-4-carboxamide] were, in that order, 738 nM and 11.1 nM.

(Values after patent US9073895B2 (Boehringer Ingelheim International GmbH, priority 2010, dated 2015).)
